Experimental data taken from paper PMC11053447, “Human ABC and SLC Transporters: The Culprit Responsible for Unspecific PSMA-617 Uptake?” (Pharmaceuticals, 2024).

Target: T1, MRP4 (Homo sapiens, UniProt O15439)
T1 construct: host or cells: HEK293 (membrane vesicles)
T1 sequence (O15439 1-1325): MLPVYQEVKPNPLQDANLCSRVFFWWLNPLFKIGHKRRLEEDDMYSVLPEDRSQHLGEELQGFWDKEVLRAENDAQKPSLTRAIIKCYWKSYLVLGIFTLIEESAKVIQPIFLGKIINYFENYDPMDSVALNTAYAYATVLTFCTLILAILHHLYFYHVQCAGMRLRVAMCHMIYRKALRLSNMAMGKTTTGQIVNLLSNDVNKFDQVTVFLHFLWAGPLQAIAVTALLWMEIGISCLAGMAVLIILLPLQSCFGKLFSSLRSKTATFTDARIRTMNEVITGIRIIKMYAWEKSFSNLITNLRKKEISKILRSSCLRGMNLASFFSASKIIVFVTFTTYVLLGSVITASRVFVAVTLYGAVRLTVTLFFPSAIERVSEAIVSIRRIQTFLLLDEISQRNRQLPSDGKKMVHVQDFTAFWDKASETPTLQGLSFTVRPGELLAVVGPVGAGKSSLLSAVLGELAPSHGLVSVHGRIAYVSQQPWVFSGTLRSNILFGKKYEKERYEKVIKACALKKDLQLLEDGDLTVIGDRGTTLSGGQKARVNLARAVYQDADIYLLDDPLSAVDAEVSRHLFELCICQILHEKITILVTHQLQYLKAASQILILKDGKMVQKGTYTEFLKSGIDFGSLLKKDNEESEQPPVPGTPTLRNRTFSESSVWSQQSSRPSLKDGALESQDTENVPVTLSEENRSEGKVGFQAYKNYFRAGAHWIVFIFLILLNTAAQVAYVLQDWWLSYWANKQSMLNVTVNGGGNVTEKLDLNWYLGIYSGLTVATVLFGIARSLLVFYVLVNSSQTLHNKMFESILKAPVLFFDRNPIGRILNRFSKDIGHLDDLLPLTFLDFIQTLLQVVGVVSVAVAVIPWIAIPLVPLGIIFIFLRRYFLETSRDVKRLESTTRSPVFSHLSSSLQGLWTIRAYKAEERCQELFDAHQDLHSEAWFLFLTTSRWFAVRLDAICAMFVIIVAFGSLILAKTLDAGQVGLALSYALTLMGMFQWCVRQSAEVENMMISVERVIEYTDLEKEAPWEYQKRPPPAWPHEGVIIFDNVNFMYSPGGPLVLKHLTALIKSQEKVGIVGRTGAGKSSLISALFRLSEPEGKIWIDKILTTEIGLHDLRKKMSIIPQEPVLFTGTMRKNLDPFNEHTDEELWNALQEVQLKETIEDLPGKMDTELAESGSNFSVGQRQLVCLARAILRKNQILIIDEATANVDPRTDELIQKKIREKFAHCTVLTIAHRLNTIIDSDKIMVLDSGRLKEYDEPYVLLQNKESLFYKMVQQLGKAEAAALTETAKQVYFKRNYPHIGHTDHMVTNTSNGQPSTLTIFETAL
Test: Vesicular transport inhibition assay (ABC), MRP4-mediated DHEAS transport, HEK293 membrane vesicles
Format: in vitro ADME
Details: for Relative inhibition / ATP dependent transport / Relative ATP dependent transport: DHEAS probe; for ATP dependent transport / Relative ATP dependent transport: mean (n=3) ± SD

`[3H]C(c1ccc2ccccc2c1)C([3H])(NC(=O)C1CCC(CNC(=O)CN2CCN(CC(=O)[O-])CCN(CC(=O)[O-])CCN(CC(=O)[O-])CC2)CC1)C(=O)NCCCCC(NC(=O)NC(CCC(=O)O)C(=O)O)C(=O)O.[Lu+3]` (stereo not drawn) [([α,β-^3H]Nal)Lu-PSMA-617] was tested, and the “Inhibitor assessment (MRP4)” value (0.30 and 3.00 µM, inhibition >20% defined as significant) was “no inhibitor”, the Relative inhibition (test substance 0.30 µM nominal) was -1% and the ATP dependent transport (test substance 0.30 µM nominal) was 13761.00 ± 400.40 pmol/mg/min. For the same molecule, the “Relative ATP dependent transport” value (test substance 0.30 µM nominal) was 100.94 ± 4.07 % of control, the Relative inhibition (test substance 3.00 µM nominal) was -6% and the ATP dependent transport (test substance 3.00 µM nominal) was 14510.33 ± 290.35 pmol/mg/min. The “Relative ATP dependent transport” value (test substance 3.00 µM nominal) was 106.44 ± 3.66 % of control.
